{"source": "PubChem BioAssay AID1745844", "about": "(Carcinogenic Potency Database (CPDB), 2022)", "tested_on": "rodent lifetime carcinogenesis bioassay, tumor incidence TD50", "test": "chronic cancer bioassays in animals – CPDB, compiled studies (AID 1745844)", "note": "The source made the active and inactive calls. No rule for the calls is given here."}
{"smiles": "CC(C)N(C(=O)SCC(Cl)=CCl)C(C)C", "values": [{"measurement": "TD50", "setting": "mouse, strain B6AKF1, females, oral dosing, site: any site (literature study), lesion: several types, types named in the paper, dosed 85 weeks, study length 85 weeks", "value": 1990, "unit": "mg/kg/day"}, {"measurement": "TD50", "setting": "mouse, strain B6AKF1, females, oral dosing, site: liver, lesion: hepatoma, dosed 85 weeks, study length 85 weeks", "value": 516, "unit": "mg/kg/day"}, {"measurement": "TD50", "setting": "mouse, strain B6AKF1, females, oral dosing, site: lung, lesion: adenoma, dosed 85 weeks, study length 85 weeks", "value": 4260, "unit": "mg/kg/day"}, {"measurement": "TD50", "setting": "mouse, strain B6AKF1, males, oral dosing, site: any site (literature study), lesion: several types, types named in the paper, dosed 84 weeks, study length 84 weeks", "value": 35.4, "unit": "mg/kg/day"}, {"measurement": "TD50", "setting": "mouse, strain B6AKF1, males, oral dosing, site: liver, lesion: hepatoma, dosed 84 weeks, study length 84 weeks", "value": 43, "unit": "mg/kg/day"}, {"measurement": "TD50", "setting": "mouse, strain B6AKF1, males, oral dosing, site: lung, lesion: adenoma, dosed 84 weeks, study length 84 weeks", "value": 243, "unit": "mg/kg/day"}, {"measurement": "TD50", "setting": "mouse, strain B6C3F1, females, oral dosing, site: any site (literature study), lesion: several types, types named in the paper, dosed 83 weeks, study length 83 weeks", "value": 90.8, "unit": "mg/kg/day"}, {"measurement": "TD50", "setting": "mouse, strain B6C3F1, females, oral dosing, site: liver, lesion: several types, types named in the paper, dosed 83 weeks, study length 83 weeks", "value": 164, "unit": "mg/kg/day"}, {"measurement": "TD50", "setting": "mouse, strain B6C3F1, females, oral dosing, site: lung, lesion: adenoma, dosed 83 weeks, study length 83 weeks", "value": 255, "unit": "mg/kg/day"}, {"measurement": "TD50", "setting": "mouse, strain B6C3F1, males, oral dosing, site: any site (literature study), lesion: several types, types named in the paper, dosed 84 weeks, study length 84 weeks", "value": 15.6, "unit": "mg/kg/day"}, {"measurement": "TD50", "setting": "mouse, strain B6C3F1, males, oral dosing, site: liver, lesion: hepatoma, dosed 84 weeks, study length 84 weeks", "value": 19.4, "unit": "mg/kg/day"}, {"measurement": "TD50", "setting": "mouse, strain B6C3F1, males, oral dosing, site: lung, lesion: adenoma, dosed 84 weeks, study length 84 weeks", "value": 113, "unit": "mg/kg/day"}]}
{"smiles": "CCOC(=O)/C=C\\C(=O)OCC", "values": [{"measurement": "carcinogen call", "setting": "rat, strain F344/DuCrj, males, in feed, site: forestomach, lesion: one or several types, types not named, dosed 51 weeks, study length 52 weeks", "value": "negative (inactive)"}, {"measurement": "TD50", "setting": "rat, strain F344/DuCrj, males, in feed, site: forestomach, lesion: squamous-cell papilloma, dosed 104 weeks, study length 104 weeks", "value": 1070, "unit": "mg/kg/day"}, {"measurement": "carcinogen call", "setting": "rat, strain F344/DuCrj, males, in feed, site: stomach, glandular, lesion: one or several types, types not named, dosed 51 weeks, study length 52 weeks", "value": "negative (inactive)"}]}
{"smiles": "CCCCNNCCCC", "values": [{"measurement": "TD50", "setting": "mouse, strain Swiss albino, females, in drinking water, site: all sites, lesion: malignant lymphoma, dosed 93 weeks, study length 93 weeks", "value": 198, "unit": "mg/kg/day"}, {"measurement": "carcinogen call", "setting": "mouse, strain Swiss albino, females, in drinking water, site: liver, lesion: angioma, dosed 93 weeks, study length 93 weeks", "value": "negative (inactive)"}, {"measurement": "carcinogen call", "setting": "mouse, strain Swiss albino, females, in drinking water, site: liver, lesion: angiosarcoma, dosed 93 weeks, study length 93 weeks", "value": "negative (inactive)"}, {"measurement": "TD50", "setting": "mouse, strain Swiss albino, females, in drinking water, site: lung, lesion: several types, types named in the paper, dosed 93 weeks, study length 93 weeks", "value": 69.8, "unit": "mg/kg/day"}, {"measurement": "TD50", "setting": "mouse, strain Swiss albino, males, in drinking water, site: all sites, lesion: malignant lymphoma, dosed 87 weeks, study length 87 weeks", "value": 886, "unit": "mg/kg/day"}, {"measurement": "TD50", "setting": "mouse, strain Swiss albino, males, in drinking water, site: kidney, lesion: several types, types named in the paper, dosed 87 weeks, study length 87 weeks", "value": 449, "unit": "mg/kg/day"}, {"measurement": "carcinogen call", "setting": "mouse, strain Swiss albino, males, in drinking water, site: liver, lesion: angioma, dosed 87 weeks, study length 87 weeks", "value": "negative (inactive)"}, {"measurement": "carcinogen call", "setting": "mouse, strain Swiss albino, males, in drinking water, site: liver, lesion: angiosarcoma, dosed 87 weeks, study length 87 weeks", "value": "negative (inactive)"}, {"measurement": "TD50", "setting": "mouse, strain Swiss albino, males, in drinking water, site: lung, lesion: several types, types named in the paper, dosed 87 weeks, study length 87 weeks", "value": 34.5, "unit": "mg/kg/day"}]}
{"smiles": "CCOC(=O)C(O)(c1ccc(Cl)cc1)c1ccc(Cl)cc1", "values": [{"measurement": "TD50", "setting": "mouse, strain B6AKF1, females, oral dosing, site: any site (literature study), lesion: several types, types named in the paper, dosed 82 weeks, study length 82 weeks", "value": 621, "unit": "mg/kg/day"}, {"measurement": "TD50", "setting": "mouse, strain B6AKF1, females, oral dosing, site: lung, lesion: adenoma, dosed 82 weeks, study length 82 weeks", "value": 621, "unit": "mg/kg/day"}, {"measurement": "TD50", "setting": "mouse, strain B6AKF1, males, oral dosing, site: any site (literature study), lesion: several types, types named in the paper, dosed 82 weeks, study length 82 weeks", "value": 72.8, "unit": "mg/kg/day"}, {"measurement": "TD50", "setting": "mouse, strain B6AKF1, males, oral dosing, site: liver, lesion: hepatoma, dosed 82 weeks, study length 82 weeks", "value": 69.8, "unit": "mg/kg/day"}, {"measurement": "TD50", "setting": "mouse, strain B6C3F1, females, in feed, site: any site (literature study), lesion: several types, types named in the paper, dosed 78 weeks, study length 90 weeks", "value": 3930, "unit": "mg/kg/day"}, {"measurement": "TD50", "setting": "mouse, strain B6C3F1, females, in feed, site: liver, lesion: hepatocellular adenoma + hepatocellular carcinoma + neoplastic nodule, dosed 78 weeks, study length 90 weeks", "value": 848, "unit": "mg/kg/day"}, {"measurement": "TD50", "setting": "mouse, strain B6C3F1, females, in feed, site: liver, lesion: hepatocellular carcinoma, dosed 78 weeks, study length 90 weeks", "value": 848, "unit": "mg/kg/day"}, {"measurement": "TD50", "setting": "mouse, strain B6C3F1, females, oral dosing, site: any site (literature study), lesion: several types, types named in the paper, dosed 82 weeks, study length 82 weeks", "value": 302, "unit": "mg/kg/day"}, {"measurement": "TD50", "setting": "mouse, strain B6C3F1, females, oral dosing, site: lung, lesion: adenoma, dosed 82 weeks, study length 82 weeks", "value": 621, "unit": "mg/kg/day"}, {"measurement": "TD50", "setting": "mouse, strain B6C3F1, males, in feed, site: any site (literature study), lesion: several types, types named in the paper, dosed 78 weeks, study length 90 weeks", "value": 256, "unit": "mg/kg/day"}, {"measurement": "TD50", "setting": "mouse, strain B6C3F1, males, in feed, site: liver, lesion: hepatocellular adenoma + hepatocellular carcinoma + neoplastic nodule, dosed 78 weeks, study length 90 weeks", "value": 235, "unit": "mg/kg/day"}, {"measurement": "TD50", "setting": "mouse, strain B6C3F1, males, in feed, site: liver, lesion: hepatocellular carcinoma, dosed 78 weeks, study length 90 weeks", "value": 235, "unit": "mg/kg/day"}, {"measurement": "TD50", "setting": "mouse, strain B6C3F1, males, oral dosing, site: any site (literature study), lesion: several types, types named in the paper, dosed 82 weeks, study length 82 weeks", "value": 31.7, "unit": "mg/kg/day"}, {"measurement": "TD50", "setting": "mouse, strain B6C3F1, males, oral dosing, site: liver, lesion: hepatoma, dosed 82 weeks, study length 82 weeks", "value": 43.8, "unit": "mg/kg/day"}, {"measurement": "carcinogen call", "setting": "rat, strain Carworth Farms, females, in feed, site: mammary gland, lesion: adenofibroma, dosed 104 weeks, study length 104 weeks", "value": "negative (inactive)"}, {"measurement": "TD50", "setting": "rat, strain Osborne-Mendel, females, in feed, site: adrenal gland, lesion: cortical adenoma, dosed 78 weeks, study length 110 weeks", "value": "490 mg/kg/day (inactive)"}, {"measurement": "TD50", "setting": "rat, strain Osborne-Mendel, males, in feed, site: adrenal gland, lesion: cortical adenoma, dosed 78 weeks, study length 110 weeks", "value": "186 mg/kg/day (inactive)"}, {"measurement": "TD50", "setting": "rat, strain Osborne-Mendel, males, in feed, site: liver, lesion: hepatocellular adenoma + hepatocellular carcinoma + neoplastic nodule, dosed 78 weeks, study length 110 weeks", "value": 1600, "unit": "mg/kg/day"}]}
{"smiles": "Cn1cnc2nc(N)[nH]c(=O)c21", "values": [{"measurement": "TD50", "setting": "rat, strain BR 46, both sexes, i.v., site: any site (literature study), lesion: malignant tumor, dosed 106 weeks, study length 126 weeks", "value": "8.24 mg/kg/day (inactive)"}]}
